Results: US12083140B2, “Pharmaceutical composition for preventing and treating glaucoma, containing adenosine derivative” (FUTURE MEDICINE CO., LTD., priority 2017, dated 2024)

Tests used:
[1] = test system: TIMP (TIMP 1, TIMP2); assay: TIMP enzyme protein and mRNA expression in trabecular meshwork tissue; type: in vivo, C57BL/6J mice; details: Example 2 oral 20 mg/kg once a day and 10 mg/kg twice a day; acetazolamide 4.17 mg/kg once a day
Procedure: (§1) In Experimental Example 10, the expression amounts of these proteins and mRNAs in MMP and TIMP enzymes were measured for the eye tissues of the respective laboratory animals which the measurement of the intraocular pressure was completed, and the results are shown in FIG. 14 to FIG. 17. FIG. 14 and FIG. 15 show protein expression amounts of MMP (MMP2, MMP9) and TIMP (TIMP 1, TIMP2) enzymes, respectively. FIG. 16 and FIG. 17 show mRNA expression levels. In FIG. 14 to FIG. 17, Normal represents the expression level of the animal to which the dexamethasone was not treated in Experimental Example 10, Control represents the expression level of the animal to which only the excipient was administered in Experimental Example 10, and Acetazolamide represents the expression level of the animal to which acetazolamide was administered in Experimental Example 10.

[2] = test system: histidine-requiring Salmonella (TA98, TA100, TA1535 and TA1537 strains) and tryptophan-requiring E. coli (WP2uvrA (pKM101) strain); assay: Genotoxicity, back-mutation test with and without metabolic activation; type: cell-based
[3] = target: hERG (Homo sapiens, UniProt Q12809); assay: Cardiotoxicity, hERG ligand binding assay (fluorescence polarization)
hERG, sequence (Q12809 whole entry): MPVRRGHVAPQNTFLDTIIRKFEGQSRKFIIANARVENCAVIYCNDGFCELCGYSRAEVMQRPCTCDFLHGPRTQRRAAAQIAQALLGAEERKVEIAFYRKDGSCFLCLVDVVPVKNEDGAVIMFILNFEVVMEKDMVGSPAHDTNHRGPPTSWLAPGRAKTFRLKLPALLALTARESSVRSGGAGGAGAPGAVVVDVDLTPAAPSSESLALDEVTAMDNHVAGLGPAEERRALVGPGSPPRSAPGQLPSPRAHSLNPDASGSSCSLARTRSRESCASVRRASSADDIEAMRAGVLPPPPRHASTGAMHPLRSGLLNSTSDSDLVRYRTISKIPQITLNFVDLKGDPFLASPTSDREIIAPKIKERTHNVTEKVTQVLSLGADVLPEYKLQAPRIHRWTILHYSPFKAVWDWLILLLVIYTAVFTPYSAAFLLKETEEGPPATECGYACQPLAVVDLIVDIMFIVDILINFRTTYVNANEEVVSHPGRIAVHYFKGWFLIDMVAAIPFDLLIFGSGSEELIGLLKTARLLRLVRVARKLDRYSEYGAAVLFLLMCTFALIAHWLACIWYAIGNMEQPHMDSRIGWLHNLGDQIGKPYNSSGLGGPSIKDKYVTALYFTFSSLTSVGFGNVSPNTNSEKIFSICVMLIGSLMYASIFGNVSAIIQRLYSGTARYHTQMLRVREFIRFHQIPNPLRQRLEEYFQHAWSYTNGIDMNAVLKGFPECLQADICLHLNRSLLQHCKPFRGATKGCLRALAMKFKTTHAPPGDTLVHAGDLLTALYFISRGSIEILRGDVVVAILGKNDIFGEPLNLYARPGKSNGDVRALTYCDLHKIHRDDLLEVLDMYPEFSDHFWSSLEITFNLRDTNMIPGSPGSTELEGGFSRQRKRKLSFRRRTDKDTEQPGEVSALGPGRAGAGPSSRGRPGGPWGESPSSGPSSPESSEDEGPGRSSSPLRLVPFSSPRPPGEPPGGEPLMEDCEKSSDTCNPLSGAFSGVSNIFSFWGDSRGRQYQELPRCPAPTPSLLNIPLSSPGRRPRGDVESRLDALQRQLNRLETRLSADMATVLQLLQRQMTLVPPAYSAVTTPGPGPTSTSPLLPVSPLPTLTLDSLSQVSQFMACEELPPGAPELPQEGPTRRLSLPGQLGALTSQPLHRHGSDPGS

[4] = test system: intraocular pressure; assay: Intraocular pressure reduction after oral administration, dexamethasone-elevated intraocular pressure; type: in vivo, C57BL/6J mice; details: oral, 5, 10, 20 mg/kg once a day and 10 mg/kg twice a day, 22 days
Procedure: In order to examine the intraocular pressure lowering effect of the derivatives of the present invention, the following animal experiments were performed. […] As controls, only the above excipients were administered to laboratory animals with elevated intraocular pressure once a day, or experimental animals were not treated with dexamethasone or with 4.17 mg/kg of acetazolamide, an intraocular pressure lowering agent, once a day.
Then, the intraocular pressure of the test animal was measured at predetermined intervals for 22 days, and the results are shown in FIG. 8 to FIG. 12. In FIG. 8 to FIG. 12, Control represents a control group in which dexamethasone is not treated to laboratory animals, Vehicle represents a control group in which only excipients were orally administered to laboratory animals with elevated intraocular pressure, and Acetazolamide represents control group in which acetazolamide, an intraocular pressure lowering agent was orally administered to laboratory animals with elevated intraocular pressure.

[5] = test system: MMP (MMP2, MMP9); assay: MMP enzyme protein and mRNA expression in trabecular meshwork tissue; type: in vivo, C57BL/6J mice; details: Example 2 oral 20 mg/kg once a day and 10 mg/kg twice a day; acetazolamide 4.17 mg/kg once a day
Procedure: as §1

[6] = test system: TPA-induced mouse ear edema; assay: Anti-inflammatory activity, TPA-induced mouse ear edema; type: in vivo, ICR mice; details: 0.5% in acetone
Procedure: In order to investigate the anti-inflammatory activity of the derivatives of the present invention, the animal experiments were performed as below. Seven-week-old male ICR mice were treated with TPA (12-O-tetradecanoylphorbol 13-acetate, […]) in the right ear. […] The same experiment was performed by treating hydrocortisone used as a treatment agent for inflammation as a control at the same concentration.
Subsequently, secondly, the adenosine derivative compound of the present invention was treated after 6 hours from TPA treatment. Twenty-four hours after TPA treatment, the animals were euthanized using the cervical dislocation method. Then, a right ear sample was obtained using a 6 mm diameter punch. The activity could be confirmed by weighing using a microbalance. The inhibition rate (%) was calculated using the following Equation 1.

[7] = test system: extracellular matrix proteins (Fibronectin, SMA and MYOC); assay: Anti-fibrotic effect on trabecular meshwork tissue (immunostaining); type: in vivo, C57BL/6J mice; details: Example 2 oral 20 mg/kg once a day and 10 mg/kg twice a day; acetazolamide 4.17 mg/kg once a day
Procedure: In Experimental Example 10, the ocular tissues of each laboratory animal after measurement of intraocular pressure were extracted and sectioned and immunostaining using antibody was performed to confirm the expression of extracellular matrix proteins (Fibronectin, SMA and MYOC) and the results are shown in FIG. 13. In FIG. 13, Normal represents the trabecular meshwork of the animal which dexamethasone was not treated with in Experimental Example 10, Control represents the trabecular meshwork tissue of the animal to which only the excipient was administered in Experimental Example 10, Acetazolamide represents the trabecular meshwork tissue of the animal to which acetazolamide was administered in Experimental Example 10. Fluorescently stained tissue was observed under fluorescence microscope under the same conditions (magnification 200×, exposure time 1 sec).

[8] = test system: rats; assay: Single dose toxicity test; type: in vivo
[9] = test system: each cell line; assay: Cytotoxicity, Cyto X cell viability assay kit; type: cell-based

Structure (SMILES): O[C@@H]1[C@H](O)CS[C@H]1n1cnc2c(NCc3cccc(Cl)c3)nc(Cl)nc21 [Example 2, (2R,3R,4S)-2-(2-chloro-6-(3-chlorobenzylamino)-9H-purin-9-yl)tetrahydrothiophene-3,4-diol]
- protein and mRNA expression levels of TIMP enzyme compared with the normal group [1]: significantly decreased
- toxicity, Genotoxicity test [2]: Not found
- number of back-mutation reversion colonies ([2]; all doses of each strain, regardless of metabolic activation): did not exceed twice the negative control
- toxicity, Cardiotoxicity test [3]: Not found
- inhibition at 10 µM ([3]; human, hERG channel protein (ligand binding assay), probe red fluorescent hERG channel ligand tracer, 10 μM, read-out: inhibition rate (hERG channel ligand tracer binding)): ≤ 50%
- intraocular pressure, dose dependence [4]: reduction in intraocular pressure, which was dependent on the dose
- protein and mRNA expression levels of MMP enzyme compared with the normal group [5]: significantly increased
- TPA-induced mouse ear edema [6]: reduced by a small amount
- expression of fibronectin, SMA and MYOC protein in trabecular meshwork tissue [7]: greatly reduced
- toxicity, Single dose toxicity test ([8]; rat, in vivo): Not found
- dead animals ([8]; single dose of 2,000 mg/kg, 5 male rats and 5 female rats): there was no dead animal
- toxicity, Cytotoxicity Test [9]: Not found
